We go through 6 molecules from patent US11306082B2, “Esters of dihydrotetrabenazine” (Foresee Pharmaceuticals Co., Ltd., priority 2017, dated 2022).

pIC50, pKi: −log10 of the molar value. Converted amounts (≈) assume the structure as drawn.

Data set [1] is described as follows: Aqueous solubility of compounds. The class given is physicochemical. The conditions noted are these: for aqueous solubility compared with compound IV: all tested conditions; for solubility: aqueous buffer, thermodynamic from solid, 37° C. As for the experimental part: Compound suspensions (2 mg/m L) in various aqueous solutions, including 10 mM pH 4.0 citrate-saline buffer, 10 mM pH 5.0 citrate-saline buffer, 10 mM pH 5.8 PBS, 10 mM pH 7.4 PBS, 10 mM pH 8.5 borate-saline buffer, pure water and serum, were stirred at 37° C. for 2-3 days. Daily, 0.5 to 1 mL aliquots were taken and centrifuged at 14,000 rpm for 2 min without temperature control. The supernatant was analyzed by HPLC to determine the amount of dissolved compounds.

Data set [2] is described as follows: Solubility in pharmaceutical acceptable organic solvents. The conditions noted are these: for solubility: organic solvent or mixture, thermodynamic from solid, 37° C. The class given is physicochemical. As for the experimental part:
Previously, non-aqueous solvents, such as organic solvents, have long been utilized in injectable pharmaceutical products to dissolve water-insoluble drugs. Here, the solubility of compounds of the present application in various organic solvents were tested. The compound suspensions in various pharmaceutical acceptable organic solvents, including dimethylacetamide (DMAc), Dimethyl sulfoxide (DMSO), triacetin (TA), were stirred at 37° C. at designed time interval. At the designed time point, 0.5 mL aliquots were taken and centrifuged at 14,000 rpm for 2 min without temperature control. The supernatant was diluted with ACN and then analyzed by HPLC to determine the amount of dissolved compounds.

A short description of data set [3]: Solubility in pharmaceutical acceptable oils. The data set is classed as physicochemical. Conditions: for solubility in pharmaceutical acceptable oils (in words): castor, peanut, soybean oil; for solubility: oil or lipid, thermodynamic from solid, 37° C. As for the experimental part: Conventionally, fatty acids are used to conjugate with a drug to enhance drug's lipophilicity to increase its solubility in oils. The solubility of compounds of the present application in various oils were tested. The suspension of compounds in various pharmaceutical acceptable oils, including castor oil, sesame oil, cottonseed oil, peanut oil and soybean oil, were stirred at 37° C. for 2-3 days. At designed time point, about 200 to 300 μL aliquots were taken and centrifuged at 14,000 rpm for 2 min without temperature control. The supernatant was carefully withdrawn and extracted with 9 folds of ACN. The mixture was then vortexed for 30 sec and subsequently centrifuged at 14,000 rpm for 2 min without temperature control. The supernatant (300 uL) was taken and diluted with 1 fold of isopropanol (IPA) and then analyzed by HPLC to determine the amount of dissolved compounds. The oil without compound after same extraction/dilution step was used as control. […] The higher oil solubility can be advantageously used to make long acting or sustained release formulation to deliver the active compounds.

A short description of data set [4]: Color stability in organic solvents at 37° C. Conditions: incubation at 37° C. for 7 days, organic solvents (FIG. 1). The class given is physicochemical.
Data set [5] has as its target Vesicular Monoamine Transporter Isoform 2 (VMAT2) (UniProt Q01827). The experiment in a line: VMAT2 competition binding assay ([3H]dihydrotetrabenazine, whole brain membranes). Conditions: for pIC50: read-out: VMAT2 binding affinity IC50, [3H]Dihydrotetrabenazine 10 nM, 30 min at 25° C.; for pKi: read-out: VMAT2 binding affinity Ki, Cheng-Prusoff from IC50.
Procedure: IC50 values were determined by a non-linear, least squares regression analysis using MathIQ™ (ID Business Solutions Ltd., UK).
The target in data set [6] is VMAT2 (Bos taurus, UniProt Q27963). Conditions: Scherman et al., 1983; cited from earlier work.
Data set [7] concerns the target VMAT2. The conditions noted are these: see 17 of the Declaration; cited from earlier work.
For data set [8] the following is noted: human liver assay, response in application Ser. No. 11/937,445; cited from earlier work.
For data set [9], the system named is porcine liver esterase (PLE). Briefly: Enzymatic ester hydrolysis via porcine liver esterase. The class given is in vitro ADME.
Data set [10] concerns the target VMAT2 (Rattus norvegicus, UniProt Q01827). The conditions noted are these: as disclosed in U.S. Pat. No. 8,039,627; read-out: VMAT2 binding affinity, Ki; cited from earlier work.
[11] abbreviates: borate-saline buffer, Borate (10 mM, pH 8.5).
Setting [12] is: citrate-saline buffer, Citrate buffer (10 mM, pH 5.0).

Sequence of VMAT2 (Rattus norvegicus, UniProt Q01827) (Q01827 whole entry): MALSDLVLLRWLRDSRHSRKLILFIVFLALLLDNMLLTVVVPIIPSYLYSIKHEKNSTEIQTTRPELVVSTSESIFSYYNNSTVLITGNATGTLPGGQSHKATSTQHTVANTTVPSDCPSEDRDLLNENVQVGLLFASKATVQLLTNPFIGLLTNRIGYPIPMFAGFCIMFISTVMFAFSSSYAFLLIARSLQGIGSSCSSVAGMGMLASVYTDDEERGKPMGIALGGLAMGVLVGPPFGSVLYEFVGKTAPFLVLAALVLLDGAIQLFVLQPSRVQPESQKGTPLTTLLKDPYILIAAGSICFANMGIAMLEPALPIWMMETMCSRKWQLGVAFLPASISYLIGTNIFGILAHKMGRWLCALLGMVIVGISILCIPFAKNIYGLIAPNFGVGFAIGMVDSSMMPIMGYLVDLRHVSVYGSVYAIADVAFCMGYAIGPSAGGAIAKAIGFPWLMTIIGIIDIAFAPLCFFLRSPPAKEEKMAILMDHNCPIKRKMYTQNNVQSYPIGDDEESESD
Sequence of VMAT2 (Bos taurus, UniProt Q27963) (Q27963 whole entry): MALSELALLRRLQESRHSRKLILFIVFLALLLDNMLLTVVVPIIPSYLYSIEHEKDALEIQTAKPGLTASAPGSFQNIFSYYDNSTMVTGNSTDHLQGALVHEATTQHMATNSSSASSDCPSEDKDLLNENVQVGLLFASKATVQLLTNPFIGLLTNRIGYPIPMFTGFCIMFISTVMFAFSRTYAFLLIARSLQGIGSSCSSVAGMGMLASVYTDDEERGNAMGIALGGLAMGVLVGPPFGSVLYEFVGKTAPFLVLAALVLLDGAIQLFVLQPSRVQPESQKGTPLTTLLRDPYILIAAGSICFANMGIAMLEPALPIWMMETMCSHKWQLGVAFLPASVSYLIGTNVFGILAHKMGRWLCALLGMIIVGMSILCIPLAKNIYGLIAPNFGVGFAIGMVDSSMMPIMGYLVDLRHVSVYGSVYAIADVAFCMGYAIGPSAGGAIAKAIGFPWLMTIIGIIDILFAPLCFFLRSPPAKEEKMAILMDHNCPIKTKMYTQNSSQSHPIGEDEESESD

In the case of `CCCCCCCCCCCCCCCCCCCCCC(=O)O[C@@H]1C[C@@H]2c3cc(OC)c(OC)cc3CCN2C[C@H]1CC(C)C` [Compd 1-2, (2R,3R, 11bR)-3-isobutyl-9,10-dimethoxy-1,3,4,6,7,11b-hexahydro-2H-pyrido[2,1 a]isoquinolin-2-yl behenate], the “aqueous solubility compared with compound IV” value in data set [1] was “significantly lower aqueous solubility”. Also, the solubility is under 1 µg/mL in [1] (PBS (10 mM, pH 5.8)); under 1 µg/mL in data set [1] (PBS (10 mM, pH 7.4)); 1.7 µg/mL (≈ 0.00265 mM) in data set [1] (setting [11]); under 1 µg/mL in data set [1] (setting [12]); 8810 µg/mL (≈ 13.7 mM) in data set [2] (DMAc); 150 µg/mL (≈ 0.234 mM) in [2] (DMSO). Besides, the solubility in data set [3] (Castor oil) worked out at 31400 µg/mL (≈ 48.9 mM); in data set [3] (Peanut oil), 70200 µg/mL (≈ 109 mM); in data set [3] (Soybean oil), 96400 µg/mL (≈ 150 mM). The “solubility in pharmaceutical acceptable oils (in words)” value in data set [3] is given as “fair to good solubility”. Also, in data set [4], the “color change in organic solvents” value is recorded as “no or minimal color change”. In addition, the pIC50 in [5] was under 5.00. Also, the negative logarithm of the Ki (pKi) in [5] is under 5.00.
On to `COc1cc2c(cc1OC)C1CC(=O)C(CC(C)C)CN1CC2` (racemic) [TBZ, 3-isobutyl-9,10,dimethoxy-1,3,4,6,7,11b-hexahydro-2H-pyrido[2,1-a]isoquinolin-2-one], for which the pIC50 in [6] was 8.49.
Take `COc1cc2c(cc1OC)C1CC(OC(C)=O)C(CC(C)C)CN1CC2` (stereo not shown) [acetate ester of Kilbourn]: in data set [7], the pKi was 7.80. In [8], the “conversion to (+)-α-DHTBZ” value is reported as “no conversion”.
On to `CCCCCCCCCCCCCCCC(=O)O[C@@H]1C[C@@H]2c3cc(OC)c(OC)cc3CCN2C[C@H]1CC(C)C` [Compd 1-1, (2R,3R, 11bR)-3-isobutyl-9,10-dimethoxy-1,3,4,6,7,11b-hexahydro-2H-pyrido[2,1-a]isoquinolin-2-yl palmitate], for which the “aqueous solubility compared with compound IV” value in data set [1] was “significantly lower aqueous solubility”. Further, the solubility is under 1 µg/mL in data set [1] (PBS (10 mM, pH 5.8)); 1 µg/mL (≈ 0.00179 mM) in data set [1] (PBS (10 mM, pH 7.4)); 32.6 µg/mL (≈ 0.0584 mM) in data set [1] (setting [11]); under 1 µg/mL in [1] (setting [12]); 513000 µg/mL (≈ 919 mM) in [2] (DMAc); 7800 µg/mL (≈ 14 mM) in data set [2] (DMSO). Further, the solubility amounted to 29900 µg/mL (≈ 53.6 mM) in data set [2] (Triacetin), 370000 µg/mL (≈ 663 mM) in [3] (Castor oil), 266000 µg/mL (≈ 478 mM) in data set [3] (Peanut oil) and 277000 µg/mL (≈ 496 mM) in [3] (Soybean oil). Moreover, in [2] (all tested solvent (DMSO, DMAc, triacetin)), the “solubility in organic solvents (in words)” value is on record as “good solubility”. Further, in data set [3], the “solubility in pharmaceutical acceptable oils (in words)” value was “fair to good solubility”. For the same molecule, in [9] (PLE/compound ratio of 5 or above), the “hydrolysis to release (+)-α-DHTBZ (in words)” value is “can be hydrolyzed”. Besides, the “(+)-α-DHTBZ released by ester hydrolysis” value in [9] (PLE:compound 1-1 1:1, incubation 80 min, 37° C.) is recorded as “BQL”. Further, the “color change in organic solvents” value in data set [4] was “no or minimal color change”. Moreover, in data set [5], the pIC50 was under 5.00. In data set [5], the negative logarithm of the Ki (pKi) is under 5.00.
Take `COc1cc2c(cc1OC)[C@H]1C[C@@H](O)[C@H](CC(C)C)CN1CC2` [Compd IV, (2R, 3R, 11bR)-3-isobutyl-9,10-dimethoxy-1,3,4,6,7,11b-hexahydro-2H-pyrido[2,1-a]isoquinolin-2-ol, reference compound]: the solubility was 1380 µg/mL (≈ 4.32 mM) in data set [1] (PBS (10 mM, pH 5.8)); 244 µg/mL (≈ 0.763 mM) in data set [1] (PBS (10 mM, pH 7.4)); 140 µg/mL (≈ 0.439 mM) in [1] (setting [11]); over 2000 µg/mL in data set [1] (setting [12]); 555000 µg/mL (≈ 1740 mM) in data set [2] (DMAc); 410000 µg/mL (≈ 1280 mM) in data set [2] (DMSO). Moreover, the solubility is 26100 µg/mL (≈ 81.7 mM) in data set [2] (Triacetin), 30000 µg/mL (≈ 93.9 mM) in [3] (Castor oil), 10100 µg/mL (≈ 31.6 mM) in [3] (Peanut oil) and 8000 µg/mL (≈ 25 mM) in data set [3] (Soybean oil). The “solubility in pharmaceutical acceptable oils (in words)” value in [3] is reported as “fair to good solubility”. In addition, the “color change in organic solvents” value in data set [4] was “significant color change”.
Consider `COc1cc2c(cc1OC)[C@H]1C[C@@H](OC(=O)[C@@H](N)C(C)C)[C@H](CC(C)C)CN1CC2` [VBZ, (S)-2-amino-3-methyl-butyric acid (2R, 3R, 11bR)-3-isobutyl-9,10-dimethoxy-1,3,4,6,7,11b-hexahydro-2H-pyrido[2,1-a]isoquinolin-2-yl], for which the pKi in data set [10] was 6.73. Moreover, in [8], the “conversion to (+)-α-DHTBZ” value is “can release the active (+)-α-DHTBZ”.
